Measurements from patent publication US9315531B2, “Titanocene-gold derivatives comprising thiolato ligands” (Research Foundation of the City University of New York, priority 2014, dated 2016).

How the values were obtained:
AKT = assay: Protein kinase expression in Caki-1 whole cell lysates, AKT; type: cell-based, human; conditions: Caki-1, 5 μM, by 12 hours post-treatment
Procedure: Whole cell lysates of Caki-1 cells treated with compounds 2 or 6 were also evaluated for their effects on the expression levels of selected protein kinases, namely p90-RSK, AKT and MAPKAPK3. […] Because all three enzymes have been implicated in promoting cell migration and therefore are strong targets for anti-metastasis drugs, these findings predict that compound 2 would be effective in controlling metastatic potential of renal tumors.
Cell lysis and immunoblotting: Caki-1 cells were seeded into 10-cm dishes at a density of 2.2×10^6 and incubated for 24 hours. […]
The protein concentration was determined with BCA protein dye reagent (Pierce, Fisher Scientific Pittsburgh, Pa.). Samples were denatured with 5×SDS sample buffer (0.25% bromophenol blue, 0.5 M dithiothreitol (DTT), 50% glycerol 50% (v/v), 10% sodium dodecyl sulfate (SDS) followed by heating at 95° C. for 5 minutes. Proteins were separated by SDS-PAGE, transferred to a PVDF membrane (Millipore Corp.), and probed with MAPKAPK-3 antibody (Cell Signaling Technology, Danvers, Mass., USA), as well as β-actin antibody (Cell Signaling Technology, Danvers, Mass., USA). Immunoreactive bands of primary antibodies were detected using HRP goat anti-rabbit and secondary antibodies were detected with peroxidase-conjugated secondary antibody and detected by chemiluminescence (Pierce Biotechnology, Rockford, Ill.).

[1] = Pharmacokinetics in blood/plasma (ICP-MS, gold content)
Procedure: Blood was collected by retro-orbital bleeding into heparinized blood collection vials on ice at time intervals of 30 minutes, 2 hours, 6 hours, 24 hours, and 48 hours after the first dose.
Gold and titanium content was determined using ICP-MS. […] The mixture was heated at 90° C. for 5 hours. After cooling, the samples were diluted with water, 40 ppb of Indium internal standard was added and analyzed in a Thermo Scientific XSERIES 2 ICP-MS with ESI PC3 Peltier cooled spray chamber with SC-FAST injection loop and SC-4 autosampler. All the elements were analyzed using He/H2 collision-reaction mode. Plasma from control mice was spiked with the test compounds to determine the extraction efficiency of gold and titanium.
Pharmacokinetic estimates were obtained from the plasma concentration-time profiles by non-compartmental analysis.

plasmid pBR322 DNA = assay: Electrophoresis mobility shift assay; type: binding; conditions: metal/DNAbp ratios 0.25-2.0, 37° C., 20 h
Procedure: Agarose gel electrophoresis assays were performed whereby decreased electrophoretic mobility of both forms were taken as evidence of metal-DNA binding.
Mobility Shift Assay: 10 μL aliquots of pBR322 plasmid DNA (20 μg/mL) in buffer (5 mM Tris/HCl, 50 mM NaClO4, pH=7.39) were incubated with different concentrations of the compounds (2, 3, 4, 5), and titanocene dichloride) (in the range 0.25 and 4.0 metal complex:DNA bp) at 37° C. for 20 h in the dark. Samples of free DNA and cisplatin-DNA were prepared as controls. After the incubation period, the samples were loaded onto the 1% agarose gel. The samples were separated by electrophoresis for 1.5 h at 80 V in Tris-acetate/EDTA buffer (TAE). Afterwards, the gel was stained for 30 min with a solution of GelRed nucleic acid stain.

MAPKAPK3 = assay: Protein kinase expression in Caki-1 whole cell lysates (Western blot), MAPKAPK3; type: cell-based, human; conditions: Caki-1, by 12 hours post-treatment
Procedure: The Caki-1 cells were then lysed and a Western blot analysis was performed with anti-MAPKAPK-3 antibody. Blots were probed with anti-β-Actin antibody as a control for protein loading.
Cell lysis and immunoblotting: Caki-1 cells were seeded into 10-cm dishes at a density of 2.2×10^6 and incubated for 24 hours. […] After microcentrifuging for 5 minutes at 4° C., pellets were treated with ice-cold lysis buffer with cell extraction buffer (BioSource, Camarillo, Calif.) containing 0.1% protease inhibitors and 1% phosphatase inhibitors cocktail (Fisher Scientific, Pittsburgh, Pa.) for 10 minutes, then sonicated for 10 seconds three times, and placed on ice. The lysed cells were centrifuged at 10,000×g at 4° C. for 10 minutes to remove the pellets representing the insoluble cell fraction.
The protein concentration was determined with BCA protein dye reagent (Pierce, Fisher Scientific Pittsburgh, Pa.). […]

[2] = end of the study
Procedure: At the end of the study, liver, kidney and tumor of the animals were harvested, weighed and transferred into glass vials. One ml of water was added to each samples and subjected to ultrasonic tissue disruption at 15 W power for 1 minute. The tissue homogenates were frozen at −80° C. for two hours and lyophilized. The lyophilized product was heated at 90° C. with the concentrated acid mix (described above) for five hours, cooled, diluted with water and analyzed for titanium and gold by ICP-MS.

Caki-1 renal carcinoma = assay: Caki-1 xenografts in mice, tumor growth
Procedure: Study of the effects of 2 in Caki-1 xenografts in mice: twelve female NOD.CB17-Prkdc scid/J (non-obese diabetic—severe combined immunodeficiency) from Jackson Laboratory (Bar Harbor, Me. and Sacramento, Calif., USA) were used for the xenograft experiment (ages 8 to 12 weeks and weighing 19-22 g) were used. Each mouse received 8×10^6 tumor cells subcutaneously without anesthesia. Exponentially growing Caki-1 human kidney cancer cells were suspended in 1:1 ratio 50 μl phosphate-buffered saline (PBS; pH 7.4) plus 50 μl of matrigel (BD Biosciences, San Jose, Calif., USA) were injected subcutaneously on both left and right flank of each mice. The diameter of the tumors was measured once weekly using an electronic digital caliper and the tumor volume (TV) was calculated according to the empirical equation TV=(a)(b^2)×π/6 where a=longest dimension; b=largest dimension orthogonal to a. The median volumes of each group were normalized to the initial tumor volume resulting in the relative tumor volume. […] Treatment started when tumors were palpable (about 6 mm diameter). Mice were randomized to treatment groups based on their starting tumor burden at twelve weeks of age to ensure equivalent distribution between the three groups. At trial end-point the mice were sacrificed and tumors measured again after excision and then processed for further analysis. Histological as well as biochemical evaluations of blood, liver, spleen, and kidney, were conducted.

UO31 = assay: Cell viability assay (XTT), UO31; type: cell-based, human; conditions: 72 h
Description: Cell Culture: Human renal cell carcinoma lines A498, Caki-1 and UO31, as well as the human prostate carcinoma cell lines DU145 and PC3 were newly obtained for these studies from the American Type Culture Collection (ATCC) (Manassas, Va., USA) and cultured in Roswell Park Memorial Institute (RPMI-1640) (Mediatech Inc., Manassas, Va.) media containing 10% fetal bovine serum (FBS, Life Technologies, Grand Island, N.Y.), 1% Minimum Essential Media (MEM) nonessential amino acids (NEAA, Mediatech) and 1% penicillin-streptomycin (PenStrep, Mediatech). HEK-293T cells were newly purchased from ATCC (Manassas, Va., USA) and maintained in Dulbecco's modified Eagle's medium (DMEM) (Mediatech) supplemented with 10% FBS, 1% NEAA and 1% PenStrep. […]
Cell Viability Assay: Cells were seeded at a concentration of 5000 cells/90 μl per well of either RPMI or DMEM without phenol red and without antibiotics, supplemented with 10% FBS and 2 mM L-glutamine into tissue culture grade 96-well flat bottom microplates (BioLite Microwell Plate, Fisher Scientific, Waltham, Mass., USA) and grown for 24 h at 37° C. in a humidified incubator. […] The optical absorbance of each well in a 96-well plate was quantified using BioTek ELx808 absorbance microplate reader (BioTek Winooski, Vt.) set at 450 nm wavelength. The percentage of surviving cells was calculated from the ratio of absorbance of treated to untreated cells.

Caki-1 = assay: Cell viability assay (XTT), Caki-1; type: cell-based, human; conditions: 72 h incubation
Description: Cell Culture: Human renal cell carcinoma lines A498, Caki-1 and UO31, as well as the human prostate carcinoma cell lines DU145 and PC3 were newly obtained for these studies from the American Type Culture Collection (ATCC) (Manassas, Va., USA) and cultured in Roswell Park Memorial Institute (RPMI-1640) (Mediatech Inc., Manassas, Va.) media containing 10% fetal bovine serum (FBS, Life Technologies, Grand Island, N.Y.), 1% Minimum Essential Media (MEM) nonessential amino acids (NEAA, Mediatech) and 1% penicillin-streptomycin (PenStrep, Mediatech). HEK-293T cells were newly purchased from ATCC (Manassas, Va., USA) and maintained in Dulbecco's modified Eagle's medium (DMEM) (Mediatech) supplemented with 10% FBS, 1% NEAA and 1% PenStrep. Normal human renal epithelial cells (RPTC) were purchased from Lifeline Cell Technology (Lifeline Cell Technology, Frederick, Md., USA) and maintained in Lifeline's Renal Life Medium from Lifeline Cell Technology supplemented with 2.4 mM L-glutamine, 5 μg/mL rh insulin, 1.0 nM epinephrine, 10 nM triiodothyronine, 0.1 μg/mL hydrocortisone hemisuccinate, 10 ng/mL rhEGF, 0.50% FBS, 5 μg/mL transferrin PS. All cells were cultured at 37° C. and 5% CO2 in a humidified incubator.
The optical absorbance of each well in a 96-well plate was quantified using BioTek ELx808 absorbance microplate reader (BioTek Winooski, Vt.) set at 450 nm wavelength. The percentage of surviving cells was calculated from the ratio of absorbance of treated to untreated cells.

Procedure for thioredoxin reductase: After 5, 12 or 24 hours of treatment incubation cells were washed three times in PBS, and lysed by douncing using scrapers and sheer force though syringe with a 34 gauge needle in assay buffer (Abeam Thioredoxin Reductase Assay kit, ab83463) added to 1 mM protease inhibitor cocktail (Abeam, ab65621). The lysates were centrifuged at 10,000×g for 15 minutes at 4° C. to isolate insoluble material. The total protein concentrations of soluble lysates were measured using the BCA Protein Assay (Life Technologies). The soluble lysates were incubated for 20 minutes in assay buffer with a proprietary thioredoxin reductase specific inhibitor before adding a specific substrate, DTNB (5, 5′-dithiobis(2-nitrobenzoic) acid), and measuring activity at 1 minute intervals for 30 minutes using the BioTek fluorescence microplate reader (BioTek U.S., Winooski, Vt.) set at =412 nm. Lysates were tested in duplicate. TrxR activity was calculated based on the linear amount of TNB produced per minute per mg of total protein and corrected for background activity from enzymes other than TrxR in the lysates.

Substance: [(η-C5H5)2TiMe(μ-mba)Au(PPh3)] [Compound 2]
- expression of AKT (AKT): dramatic decreases in expression
- blood concentration at the time of the second dose ([1]; 48 hours after the first dose, 3 mg/kg): 40400 ± 6000 ng/mL
- absorption into blood ([1]; blood levels up to twenty-four hours): slow absorption
- effect on electrophoretic mobility of plasmid DNA forms (plasmid pBR322 DNA): did not affect the mobility
- expression of MAPKAPK3 (MAPKAPK3): dramatic decreases in expression
- accumulation in liver and kidney [2]: accumulated in the liver and kidney to a more significant degree
- decrease in tumor size (shrinkage) from the starting volume (Caki-1 renal carcinoma; between day 1 and day 28 of treatment, total of 14 doses): 67%
- Primary Tumor (Caki-1 renal carcinoma; tumor measured on day 28, after 14th dose, every other day dosing (compound 6 […], compound 2 3 mg/kg)): 41.33 ± 13.00 mm^3
- weight loss in treated mice (Caki-1 renal carcinoma; xenograft protocol, 14 doses every other day): no weight loss
- inhibition of thioredoxin reductase activity (thioredoxin reductase; Caki-1 cells, 5 μM, five hour incubation): 31.6%
- IC50 (thioredoxin reductase; read-out: IC50 thioredoxin reductase in Caki-1 cells, after twelve hours): 880 nM
- IC50 UO31 (UO31): nanomolar range
- IC50 (Caki-1): 120 ± 3 nM
